Assay results as given in publication PMC9177597, “Structural basis of substrate recognition and translocation by human very long-chain fatty acid transporter ABCD1” (Nature Communications, 2022).
Residue numbers refer to the chain shown, from its start.

Key:
Test in all cases: substrate-stimulated ATPase assay (colorimetric Pi release)
Format in all cases: biochemical
chABCD1 (chimeric ABCD1) [1] = target: T1, chABCD1 (chimeric ABCD1) (Homo sapiens, UniProt P33897, R152A); conditions: 5 μM C22:0-CoA, 2 mM ATP, 2 mM MgCl2, LMNG + CHS, pH 7.5, 37 °C
T1 construct: single polypeptide: N-terminal FLAG tag, PMP-4 residues 1-65 replacing human ABCD1 residues 1-63, then human ABCD1 64-745; HEK293F; homodimer; LMNG/CHS for assays, digitonin for cryo-EM; with PMP-4 (peroxisomal membrane protein related, ABCD1 homolog, Caenorhabditis elegans; N-terminal segment fused to the target chain)
T1 sequence (P33897 64-745 R152A): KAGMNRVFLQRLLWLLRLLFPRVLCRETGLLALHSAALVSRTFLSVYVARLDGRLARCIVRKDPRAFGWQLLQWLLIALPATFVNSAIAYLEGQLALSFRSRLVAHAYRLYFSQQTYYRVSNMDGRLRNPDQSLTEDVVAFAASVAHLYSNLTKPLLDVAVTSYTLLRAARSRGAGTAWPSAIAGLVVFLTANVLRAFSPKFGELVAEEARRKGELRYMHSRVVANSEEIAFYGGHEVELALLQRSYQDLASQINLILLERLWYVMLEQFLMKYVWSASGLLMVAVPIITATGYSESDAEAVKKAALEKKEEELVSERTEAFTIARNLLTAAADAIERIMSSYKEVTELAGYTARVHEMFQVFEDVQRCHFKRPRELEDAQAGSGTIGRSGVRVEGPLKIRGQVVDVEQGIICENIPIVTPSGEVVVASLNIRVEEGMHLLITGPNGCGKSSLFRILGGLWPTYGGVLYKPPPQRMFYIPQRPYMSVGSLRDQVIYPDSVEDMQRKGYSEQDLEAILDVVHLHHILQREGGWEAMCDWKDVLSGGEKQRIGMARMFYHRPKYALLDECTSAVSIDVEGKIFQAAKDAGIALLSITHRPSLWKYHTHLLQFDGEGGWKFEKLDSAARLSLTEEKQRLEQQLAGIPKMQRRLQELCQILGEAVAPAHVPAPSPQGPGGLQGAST

chABCD1 (chimeric ABCD1) [2] = target: T2, chABCD1 (chimeric ABCD1) (Homo sapiens, UniProt P33897, T693M); conditions: 2 mM ATP, 2 mM MgCl2, LMNG + CHS, pH 7.5, 37 °C, varying C22:0-CoA
T2 construct: single polypeptide: N-terminal FLAG tag, PMP-4 residues 1-65 replacing human ABCD1 residues 1-63, then human ABCD1 64-745; HEK293F; homodimer; LMNG/CHS for assays, digitonin for cryo-EM; with PMP-4 (peroxisomal membrane protein related, ABCD1 homolog, Caenorhabditis elegans; N-terminal segment fused to the target chain)
T2 sequence (P33897 64-745 T693M): T1 sequence (P33897 64-745 R152A) with A89R, T630M

chABCD1 (chimeric ABCD1) [3] = target: T3, chABCD1 (chimeric ABCD1) (Homo sapiens, UniProt P33897, G343V); conditions: 5 μM C22:0-CoA, 2 mM ATP, 2 mM MgCl2, LMNG + CHS, pH 7.5, 37 °C
T3 construct: single polypeptide: N-terminal FLAG tag, PMP-4 residues 1-65 replacing human ABCD1 residues 1-63, then human ABCD1 64-745; HEK293F; homodimer; LMNG/CHS for assays, digitonin for cryo-EM; with PMP-4 (peroxisomal membrane protein related, ABCD1 homolog, Caenorhabditis elegans; N-terminal segment fused to the target chain)
T3 sequence (P33897 64-745 G343V): T1 sequence (P33897 64-745 R152A) with A89R, G280V

CCCCCCCCCCCCCCCCCCCCCC(=O)SCCNC(=O)CCNC(=O)[C@H](O)C(C)(C)COP(=O)(O)OP(=O)(O)OC[C@H]1O[C@@H](n2cnc3c(N)ncnc32)[C@H](O)[C@@H]1OP(=O)(O)O [C22:0-CoA]
relative ATPase activity (chABCD1 (chimeric ABCD1) [1]): displayed significantly decreased substrate-simulated ATPase activity, compared to the wild-type
ATPase activity (chABCD1 (chimeric ABCD1) [2]): ATPase activity assays of T693M mutant, which showed an almost non-detectable activity
relative ATPase activity (chABCD1 (chimeric ABCD1) [3]): displayed significantly decreased substrate-simulated ATPase activity, compared to the wild-type
